The values that follow come from patent US10590128B2, “6,7,8,9-tetrahydro-5H-pyrido[2,3-d]azepine dopamine D3 ligands” (Pfizer Inc., priority 2016, dated 2020).

Some results are limits rather than exact numbers.

In assay [1] the target is human dopamine D2 receptor (hD2R) (Homo sapiens, UniProt P14416). Briefly: Human D2 receptor binding assay ([^3H]-Spiperone). The settings on record: CHO cells expressing hD2R, geometric mean of 2-5 determinations unless marked b (single determination).
Assay [2] addresses human dopamine D3 receptor (hD3R) (Homo sapiens, UniProt P35462). Put plainly: Human D3 receptor binding assay ([^3H]-7-OH-DPAT). As to conditions: CHO cells expressing hD3R, geometric mean of 2-5 determinations unless marked b (single determination), read-out: hD3 in CHO cells Ki.

Chain of human dopamine D3 receptor (hD3R) (P35462 whole entry): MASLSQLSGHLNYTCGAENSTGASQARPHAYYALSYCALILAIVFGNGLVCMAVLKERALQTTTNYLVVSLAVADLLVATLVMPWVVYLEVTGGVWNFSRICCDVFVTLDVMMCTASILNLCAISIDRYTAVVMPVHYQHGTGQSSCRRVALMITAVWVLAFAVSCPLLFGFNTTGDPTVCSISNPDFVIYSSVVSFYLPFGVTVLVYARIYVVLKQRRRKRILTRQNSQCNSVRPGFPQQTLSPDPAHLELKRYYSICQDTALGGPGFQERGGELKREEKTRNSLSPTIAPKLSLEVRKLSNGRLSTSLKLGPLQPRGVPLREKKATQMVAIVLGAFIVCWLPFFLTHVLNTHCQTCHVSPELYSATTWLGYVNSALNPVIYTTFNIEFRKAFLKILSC
Chain of human dopamine D2 receptor (hD2R) (P14416 whole entry): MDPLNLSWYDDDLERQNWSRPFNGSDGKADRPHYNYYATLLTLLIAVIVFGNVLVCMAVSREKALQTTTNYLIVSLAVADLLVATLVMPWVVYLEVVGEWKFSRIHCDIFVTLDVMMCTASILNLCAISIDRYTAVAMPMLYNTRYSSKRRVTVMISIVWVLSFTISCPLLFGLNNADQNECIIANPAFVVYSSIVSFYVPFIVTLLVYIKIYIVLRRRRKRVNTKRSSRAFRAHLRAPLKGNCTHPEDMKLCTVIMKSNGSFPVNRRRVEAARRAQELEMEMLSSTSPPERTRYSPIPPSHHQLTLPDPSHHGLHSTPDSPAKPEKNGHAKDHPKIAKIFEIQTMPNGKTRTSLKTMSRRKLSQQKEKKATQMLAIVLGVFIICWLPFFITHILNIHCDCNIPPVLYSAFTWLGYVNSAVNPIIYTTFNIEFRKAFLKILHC

On to `COc1nc2c(cc1NS(=O)(=O)c1ccc(C3(C(F)(F)F)CC3)cc1)CCN(C)CC2` [Example 55, N-(2-methoxy-7-methyl-6,7,8,9-tetrahydro-5H-pyrido[2,3-d]azepin-3-yl)-4-[1-(trifluoromethyl)cyclopropyl]benzenesulfonamide], for which the Ki – broadly, the dissociation constant of the complex between target and ligand, obtained from inhibition or displacement – in assay [1] was found to be 29.1 nM; in assay [2], 0.52 nM.

Regarding `COc1nc2c(cc1NS(=O)(=O)c1ccc(OC3CCCC3)cc1)CCN(C)CC2` [Example 46, 4-(cyclopentyloxy)-N-(2-methoxy-7-methyl-6,7,8,9-tetrahydro-5H-pyrido[2,3-d]azepin-3-yl)benzenesulfonamide], the Ki was 3.21 nM in assay [1] and 0.48 nM in assay [2].

Take `COc1nc2c(cc1NS(=O)(=O)c1ccc(C3CCCCC3)nc1)CCN(C)CC2` [Example 1, 6-Cyclohexyl-N-(2-methoxy-7-methyl-6,7,8,9-tetrahydro-5H-pyrido[2,3-d]azepin-3-yl)pyridine-3-sulfonamide]: the figures for the inhibition constant Ki in assay [1] and in assay [2] were 38.8 nM and 1.75 nM, respectively.

In the case of `COc1nc2c(cc1NS(=O)(=O)c1ccc(OC(C)(C)C)nc1)CCN(C)CC2` [Example 103, 6-tert-butoxy-N-(2-methoxy-7-methyl-6,7,8,9-tetrahydro-5H-pyrido[2,3-d]azepin-3-yl)pyridine-3-sulfonamide], the Ki in assay [1] was determined as 45.2 nM; in assay [2], 1.85 nM.

Consider `CCN1CCc2cc(NS(=O)(=O)c3ccc(Cl)cc3)c(C)nc2CC1` [Example 138, 4-chloro-N-(7-ethyl-2-methyl-6,7,8,9-tetrahydro-5H-pyrido[2,3-d]azepin-3-yl)benzenesulfonamide], for which the figures for the Ki in assay [1] and in assay [2] were above 4190 nM and 288 nM, respectively.

Consider `CCN1CCc2cc(NS(=O)(=O)c3ccc([C@@H]4CCCCO4)c(F)c3)c(OC)nc2CC1` [Example 43, N-(7-ethyl-2-methoxy-6,7,8,9-tetrahydro-5H-pyrido[2,3-d]azepin-3-yl)-3-fluoro-4-[(2S)-tetrahydro-2H-pyran-2-yl]benzenesulfonamide], for which the results for the Ki in assay [1] and in assay [2] were 131 nM and 1.79 nM, respectively.

Consider `COc1nc2c(cc1NS(=O)(=O)c1ccc(C3CCCOC3)cc1)CCN(C)CC2` (single isomer, unassigned) [Example 84], for which the inhibition constant (Ki) in assay [1] is 503 nM; in assay [2], 4.58 nM.

Regarding `CCCc1ccc(S(=O)(=O)Nc2cc3c(nc2OC)CCN(CC)CC3)cc1` [Example 62, N-(7-ethyl-2-methoxy-6,7,8,9-tetrahydro-5H-pyrido[2,3-d]azepin-3-yl)-4-propylbenzenesulfonamide], the Ki in assay [1] is 52.8 nM; in assay [2], 0.4 nM.

Take `CCN1CCc2cc(NS(=O)(=O)c3ccc([C@H]4C[C@@H](OCCF)C4)cc3)c(OC)nc2CC1` [Example 119, N-(7-ethyl-2-methoxy-6,7,8,9-tetrahydro-5H-pyrido[2,3-d]azepin-3-yl)-4-[cis-3-(2-fluoroethoxy)cyclobutyl]benzenesulfonamide]: the results for the inhibition constant Ki in assay [1] and in assay [2] were 89.9 nM and 2.42 nM, respectively.

As to `COc1nc2c(cc1NS(=O)(=O)c1ccc([C@H]3CCCCO3)c(C)c1)CCN(C)CC2` [Example 104, N-(2-methoxy-7-methyl-6,7,8,9-tetrahydro-5H-pyrido[2,3-d]azepin-3-yl)-3-methyl-4-[(2R)-tetrahydro-2H-pyran-2-yl]benzenesulfonamide], the Ki in assay [1] worked out at 3.91 nM; in assay [2], 0.39 nM.

As to `COc1nc2c(cc1NS(=O)(=O)c1ccc([C@@H]3CCCCO3)c(C)c1)CCN(C)CC2` [Example 105, N-(2-methoxy-7-methyl-6,7,8,9-tetrahydro-5H-pyrido[2,3-d]azepin-3-yl)-3-methyl-4-[(2S)-tetrahydro-2H-pyran-2-yl]benzenesulfonamide], the Ki in assay [1] was 26.1 nM; in assay [2] it was 0.46 nM.

For the molecule `CCN1CCc2cc(NS(=O)(=O)c3ccc(C4(F)CCC(OC)CC4)cc3)c(OC)nc2CC1` (single isomer, unassigned) [Example 94, N-(7-ethyl-2-methoxy-6,7,8,9-tetrahydro-5H-pyrido[2,3-d]azepin-3-yl)-4-(1-fluoro-4-methoxycyclohexyl)benzenesulfonamide], the Ki in assay [1] turned out to be 727 nM; in assay [2], 2.71 nM.

Turning to `COc1nc2c(cc1NS(=O)(=O)c1ccc(OC3CCOCC3)cc1)CCN(C)CC2` [Example 78, N-(2-methoxy-7-methyl-6,7,8,9-tetrahydro-5H-pyrido[2,3-d]azepin-3-yl)-4-(tetrahydro-2H-pyran-4-yloxy)benzenesulfonamide], the Ki in assay [1] turned out to be 718 nM; in assay [2], 7.56 nM.

`CCN1CCc2cc(NS(=O)(=O)c3ccc4c(c3)CCCO4)c(OC(C)C)nc2CC1` [Example 66, N-[7-ethyl-2-(propan-2-yloxy)-6,7,8,9-tetrahydro-5H-pyrido[2,3-d]azepin-3-yl]-3,4-dihydro-2H-chromene-6-sulfonamide]: the Ki came to 1460 nM in assay [1] and 8.78 nM in assay [2].

For the molecule `COc1nc2c(cc1NS(=O)(=O)c1ccc([C@H]3CC[C@@H](OC)CC3)cc1)CCN(C)CC2` [Example 92, 4-(cis-4-methoxycyclohexyl)-N-(2-methoxy-7-methyl-6,7,8,9-tetrahydro-5H-pyrido[2,3-d]azepin-3-yl)benzenesulfonamide], the Ki in assay [1] was 600 nM; in assay [2], 5.53 nM.

Consider `CCOc1ccc(S(=O)(=O)Nc2cc3c(nc2OC)CCN(CC)CC3)cc1` [Example 52, 4-ethoxy-N-(7-ethyl-2-methoxy-6,7,8,9-tetrahydro-5H-pyrido[2,3-d]azepin-3-yl)benzenesulfonamide], for which the Ki in assay [1] amounted to 435 nM; in assay [2], 2.56 nM.

For `COc1nc2c(cc1NS(=O)(=O)c1ccc([C@H]3C[C@H](OCCF)C3)cc1)CCN(C)CC2` [Example 3, 4-[trans-3-(2-Fluoroethoxy)cyclobutyl]-N-(2-methoxy-7-methyl-6,7,8,9-tetrahydro-5H-pyrido[2,3-d]azepin-3-yl)benzenesulfonamide], the figures for the Ki in assay [1] and in assay [2] were 85.9 nM and 1.56 nM, respectively.

As to `COc1nc2c(cc1NS(=O)(=O)c1cnc(OC3CCC3)c(C)c1)CCN(C)CC2` [Example 126, 6-(cyclobutyloxy)-N-(2-methoxy-7-methyl-6,7,8,9-tetrahydro-5H-pyrido[2,3-d]azepin-3-yl)-5-methylpyridine-3-sulfonamide], the Ki in assay [1] came to 10.9 nM; in assay [2], 1.85 nM.

For `COc1nc2c(cc1NS(=O)(=O)c1ccc([C@H]3CCCCO3)cc1)CCN(C)CC2` [Example 7, N-(2-Methoxy-7-methyl-6,7,8,9-tetrahydro-5H-pyrido[2,3-d]azepin-3-yl)-4-[(2R)-tetrahydro-2H-pyran-2-yl]benzenesulfonamide], the Ki in assay [1] is 65.5 nM; in assay [2], 1.39 nM.

Regarding `CCCN1CCc2cc(NS(=O)(=O)c3ccc(OCC)cc3)c(OC)nc2CC1` [Example 50, 4-ethoxy-N-(2-methoxy-7-propyl-6,7,8,9-tetrahydro-5H-pyrido[2,3-d]azepin-3-yl)benzenesulfonamide], the Ki came out at 337 nM in assay [1] and 3.2 nM in assay [2].

As to `COc1nc2c(cc1NS(=O)(=O)c1cnc(OC3CCCC3)c(F)c1)CCN(C)CC2` [Example 130, 6-(cyclopentyloxy)-5-fluoro-N-(2-methoxy-7-methyl-6,7,8,9-tetrahydro-5H-pyrido[2,3-d]azepin-3-yl)pyridine-3-sulfonamide], the results for the Ki in assay [1] and in assay [2] were 25.2 nM and 1.69 nM, respectively.

With `COc1nc2c(cc1NS(=O)(=O)c1ccc([C@H]3C[C@@H](OC)C3)cc1)CCN(C)CC2` [Example 81, 4-(cis-3-methoxycyclobutyl)-N-(2-methoxy-7-methyl-6,7,8,9-tetrahydro-5H-pyrido[2,3-d]azepin-3-yl)benzenesulfonamide], the results for the Ki in assay [1] and in assay [2] were 311 nM and 1.19 nM, respectively.

On to `CCN1CCc2cc(NS(=O)(=O)c3ccc(C4CCCCO4)cc3)c(OC)nc2CC1` (racemic) [Example 70, N-(7-ethyl-2-methoxy-6,7,8,9-tetrahydro-5H-pyrido[2,3-d]azepin-3-yl)-4-(tetrahydro-2H-pyran-2-yl)benzenesulfonamide], for which the Ki was 294 nM in assay [1] and 2 nM in assay [2].

Take `CCN1CCc2cc(NS(=O)(=O)c3ccc(C)c(F)c3)c(OC)nc2CC1` [Example 35, N-(7-ethyl-2-methoxy-6,7,8,9-tetrahydro-5H-pyrido[2,3-d]azepin-3-yl)-3-fluoro-4-methylbenzenesulfonamide]: the Ki in assay [1] came to 995 nM; in assay [2] it was 3.7 nM.

As to `COc1nc2c(cc1NS(=O)(=O)c1ccc([C@H](C)OC)cc1)CCN(C)CC2` [Example 89, 4-[(1S)-1-methoxyethyl]-N-(2-methoxy-7-methyl-6,7,8,9-tetrahydro-5H-pyrido[2,3-d]azepin-3-yl)benzenesulfonamide], the values for the Ki in assay [1] and in assay [2] were 76 nM and 1.67 nM, respectively.

In the case of `COc1nc2c(cc1NS(=O)(=O)c1ccc(O[C@@H]3CCOC3)cc1)CCN(C)CC2` [Example 37, N-(2-methoxy-7-methyl-6,7,8,9-tetrahydro-5H-pyrido[2,3-d]azepin-3-yl)-4-[(3R)-tetrahydrofuran-3-yloxy]benzenesulfonamide], the Ki amounted to 260 nM in assay [1] and 3.21 nM in assay [2].

Consider `COc1nc2c(cc1NS(=O)(=O)c1ccc(OC3CCOC3)cc1)CCN(C)CC2` (centres unmarked) [Example 82, N-(2-methoxy-7-methyl-6,7,8,9-tetrahydro-5H-pyrido[2,3-d]azepin-3-yl)-4-(tetrahydrofuran-3-yloxy)benzenesulfonamide], for which the Ki in assay [1] is 342 nM; in assay [2], 4.37 nM.

`CCN1CCc2cc(NS(=O)(=O)c3ccc(C)c(C)c3)c(OC)nc2CC1` [Example 61, N-(7-ethyl-2-methoxy-6,7,8,9-tetrahydro-5H-pyrido[2,3-d]azepin-3-yl)-3,4-dimethylbenzenesulfonamide]: the Ki in assay [1] was 388 nM; in assay [2] it was 2.33 nM.
